Laboratory results reported in publication PMC11256326, “Discovery of Heparin Mimetic, Potent, and Selective Inhibitors of Human Clotting Factor XIIIa” (ACS Omega, 2024).
Several values for one entry are separate records, joined by “and”; a condition that tells them apart may be missing. Identical values can stand only once. Like-named read-outs stand apart in the source and are kept apart here. Marks after values point to notes of the source that are not given here.

Legend:
FXIIIa [1] = target: T1, FXIIIa (Homo sapiens, UniProt P00488); experiment: bisubstrate, fluorescence-based trans-glutamination assay; format: biochemical; conditions: for HS (Hill slope), FXIIIa inhibition: logistic fit eq 1; for IC50: pH 7.4, 37 °C, substrates dansylcadaverine and N,N-dimethylcasein
T1 construct: purchased Haematologic Technologies; host or cells: human plasma
T1 sequence (P00488 39-732 limits assumed): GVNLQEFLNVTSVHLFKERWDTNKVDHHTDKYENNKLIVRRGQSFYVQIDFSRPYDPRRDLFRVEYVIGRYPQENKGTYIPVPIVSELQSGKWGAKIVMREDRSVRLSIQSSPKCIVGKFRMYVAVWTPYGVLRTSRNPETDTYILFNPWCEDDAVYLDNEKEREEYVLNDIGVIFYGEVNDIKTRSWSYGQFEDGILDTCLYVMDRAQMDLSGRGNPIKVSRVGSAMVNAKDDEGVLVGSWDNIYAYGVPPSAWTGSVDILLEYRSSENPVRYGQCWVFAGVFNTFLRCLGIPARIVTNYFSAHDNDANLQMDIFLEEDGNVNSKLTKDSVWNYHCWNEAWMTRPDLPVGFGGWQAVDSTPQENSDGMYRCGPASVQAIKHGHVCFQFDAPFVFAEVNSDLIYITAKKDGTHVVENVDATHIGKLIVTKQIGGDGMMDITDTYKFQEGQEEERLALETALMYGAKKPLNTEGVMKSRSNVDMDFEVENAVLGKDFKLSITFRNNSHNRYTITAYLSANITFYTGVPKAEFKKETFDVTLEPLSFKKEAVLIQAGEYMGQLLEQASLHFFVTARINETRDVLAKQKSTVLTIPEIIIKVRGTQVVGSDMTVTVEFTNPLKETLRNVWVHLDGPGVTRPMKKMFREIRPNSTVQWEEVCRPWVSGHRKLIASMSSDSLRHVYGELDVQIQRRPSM
Text: A series of 27 sulfonated molecules (Figure 3) was screened for inhibition of human FXIIIa using a modified bisubstrate, fluorescence-based trans-glutamination assay, as described earlier.[36],[49] Dansylcadaverine and N,N-dimethylcasein were used as two substrates, which upon FXIIIa-dependence conjugation show a marked increase in fluorescence at 550 nm (λEX = 360 nm). The sulfonated molecules were structurally diverse given their number of anionic groups (mono- (inhibitors 24–27) to octa- (inhibitor 9)), number of building blocks (monomeric (molecules 26–29) to […] (inhibitor 14)), and the nature of the building block of oligomeric derivatives (benzamide derivatives (inhibitors 3–10, 24, and 25), triazine derivatives (inhibitors 11–14), and azo-naphthalene derivatives (molecules 15–22), and ureido-naphthalene derivative (23)) (Figure 3).
To measure the potency and efficacy of these inhibitors, the dose-dependence of FXIIIa inhibition was evaluated using logistic eq 1 (Table 1). The potency of inhibition refers to the IC50 (x-axis), whereas the efficacy refers to the net change in residual FXIIIa activity (ΔY%) (y-axis). Iodoacetamide, a nonselective inhibitor of thiol-containing enzymes, was used as a positive control.
To evaluate the effect of sulfonated molecules on human FXIIIa, a bisubstrate, fluorescence-based trans-glutamination assay was performed as we reported previously.[36],[49] Generally, 1 μL of the sulfonated molecule was diluted with 87 μL of pH 7.4 buffer (50 mM Tris-HCl, 1 mM CaCl2, 100 mM NaCl, and 2 mg/mL N,N-dimethylcasein) and 5 μL dithiothreitol (20 mM) at 37 °C followed by the addition of 2 μL of human FXIIIa (0.3 μM) and incubation for 10 min. The activity of FXIIIa was monitored following the addition of 5 μL of dansylcadaverine (2 mM) by measuring the initial rate of increase in fluorescence emission (λEx. = 360 nm and λEm. = 550 nm). Relative residual FXIIIa activity at each concentration of the inhibitor was calculated from the ratio of FXIIIa activity in the presence and absence of the inhibitor. Logistic eq 1 was used to fit the concentration dependence of residual FXIIIa activity to obtain the potency (IC50) and efficacy (ΔY%) of inhibition. [drawing 1] 1
This equation defines Y as the ratio of residual FXIIIa activity with the inhibitor present compared to its absence. YM represents the maximum possible value of residual FXIIIa activity, while YO denotes the minimum possible value. IC50 signifies the concentration of the inhibitor causing 50% enzyme activity inhibition, and HS represents the Hill slope. Determination of YM, YO, IC50, and HS values is achieved through nonlinear curve fitting of the experimental data.

FXIIIa [2] = target: T1, FXIIIa; set-up: method as in PLoS One 11(7): e0160189; conditions: ref PLoS One 11(7): e0160189; cited from earlier work
normal human plasma [3] = experiment: activated partial thromboplastin time (APTT) of normal human plasma; format: biochemical; conditions: normal human plasma, in vitro
Protocol: (§1) To further evaluate the selectivity as well as the potential toxicity of inhibitors, we studied their effects on the clotting times of normal human plasma as well as their effects on the proliferation of three cell lines. On the one hand, the inhibitors’ effects on activated partial thromboplastin time (APTT) and prothrombin time (PT) were measured, as described earlier under in vitro conditions,[52]−[55] using variable concentrations (0–2000 μM) (Table 3). […] On the other hand, the antiproliferative properties of inhibitors 13 and 16 were evaluated in three cell lines of breast (MCF-7), intestine (CaCo-2), and kidney (HEK-293) (Figure 5B), as described earlier.[56] […] Overall, inhibitor 16 can be considered for further development as a potent, selective, and nontoxic inhibitor of human FXIIIa.
(§2) Clotting times, including activated partial thromboplastin time (APTT) and prothrombin time (PT), were assessed in normal human plasma utilizing the BBL Fibrosystem fibrometer from Becton–Dickinson, as detailed in previous publications.[51]−[54] For the PT assay, thromboplastin-D was dissolved in 4 mL of highly purified water and then warmed to 37 °C. Subsequently, 10 μL of the inhibitor was added to 90 μL of normal human plasma and incubated for 30 s. Following this, 200 μL of prewarmed PT reagent was added, and the clotting time was recorded. In the APTT assay, 10 μL of the inhibitor was combined with 90 μL of normal human plasma and 100 μL of prewarmed APTT reagent (0.2% ellagic acid). After incubation for 4 min at 37 °C, clotting was initiated by adding 100 μL of prewarmed 0.025 M CaCl2, and the clotting time was documented. Multiple concentrations of each molecule were employed in both assays to establish a concentration vs effect curve.

normal human plasma [4] = experiment: prothrombin time (PT) of normal human plasma; format: biochemical; conditions: in vitro
Protocol: as §1, §2

| SMILES | HS (Hill slope), FXIIIa inhibition (FXIIIa [1]) | IC50 (FXIIIa [1]) | also measured |
| --- | --- | --- | --- |
| O=C(Nc1ccc(C(=O)Nc2ccc(C(=O)Nc3ccc(S(=O)(=O)O)c4cc(S(=O)(=O)O)cc(S(=O)(=O)O)c34)cc2)cc1)Nc1ccc(C(=O)Nc2ccc(C(=O)Nc3ccc(S(=O)(=O)O)c4cc(S(=O)(=O)O)cc(S(=O)(=O)O)c34)cc2)cc1 [compound 5] | 1.5 ± 0.8 |  |  |
| Cc1ccc(C(=O)Nc2ccc(S(=O)(=O)O)c3cc(S(=O)(=O)O)cc(S(=O)(=O)O)c23)cc1NC(=O)c1cccc(NC(=O)Nc2cccc(C(=O)Nc3cc(C(=O)Nc4ccc(S(=O)(=O)O)c5cc(S(=O)(=O)O)cc(S(=O)(=O)O)c45)ccc3C)c2)c1 [compound 3] | 1.0 ± 0.2 | 77.2 ± 17.1 µM |  |
| O=c1c(OS(=O)(=O)O)c(-c2ccc(OS(=O)(=O)O)c(OS(=O)(=O)O)c2)oc2cc(OS(=O)(=O)O)cc(OCCCOc3cc(-c4oc5cc(OS(=O)(=O)O)cc(OCCCOc6cc(OS(=O)(=O)O)cc7oc(-c8ccc(OS(=O)(=O)O)c(OS(=O)(=O)O)c8)c(OS(=O)(=O)O)c(=O)c67)c5c(=O)c4OS(=O)(=O)O)ccc3OS(=O)(=O)O)c12 [compound 2] |  |  | fold less potent than inhibitor 16 against FXIIIa (FXIIIa [1]): at least 15 fold; HS (Hill slope), FXIIIa inhibition (FXIIIa [2]): 1.1±0.5; IC50 (FXIIIa [2]): 118 ± 50 µM |
| NC(=O)CI [Iodoacetamide, reference compound] | 0.8 ± 0.2 | ~2.9 µM and 2.9 µM |  |
| O=C(Nc1cccc(C(=O)Nc2ccc(S(=O)(=O)O)c3cc(S(=O)(=O)O)cc(S(=O)(=O)O)c23)c1)Nc1cccc(C(=O)Nc2ccc(S(=O)(=O)O)c3cc(S(=O)(=O)O)cc(S(=O)(=O)O)c23)c1 [compound 7] | 0.9 ± 0.2 | 162 ± 37.1 µM |  |
| O=C(Nc1cccc(C(=O)Nc2cc(C(=O)Nc3ccc(S(=O)(=O)O)c4cc(S(=O)(=O)O)cc(S(=O)(=O)O)c34)ccc2F)c1)Nc1cccc(C(=O)Nc2cc(C(=O)Nc3ccc(S(=O)(=O)O)c4cc(S(=O)(=O)O)cc(S(=O)(=O)O)c34)ccc2F)c1 [compound 4] |  | > 50 µM | FXIIIa inhibition at the highest concentration tested (FXIIIa [1]): did not inhibit |
| O=c1c(OS(=O)(=O)O)c(-c2ccc(OS(=O)(=O)O)c(OS(=O)(=O)O)c2)oc2cc(OS(=O)(=O)O)cc(OCCOc3cc(-c4oc5cc(OS(=O)(=O)O)cc(OCCOc6cc(OS(=O)(=O)O)cc7oc(-c8ccc(OS(=O)(=O)O)c(OS(=O)(=O)O)c8)c(OS(=O)(=O)O)c(=O)c67)c5c(=O)c4OS(=O)(=O)O)ccc3OS(=O)(=O)O)c12 [compound 1, reference compound] |  |  | fold less potent than inhibitor 16 against FXIIIa (FXIIIa [1]): at least 15 fold; HS (Hill slope), FXIIIa inhibition (FXIIIa [2]): 0.9 ±0.2 |
| Cc1ccc(C(=O)Nc2cc(S(=O)(=O)O)cc3ccc(S(=O)(=O)O)cc23)cc1NC(=O)Nc1cc(C(=O)Nc2cc(S(=O)(=O)O)cc3ccc(S(=O)(=O)O)cc23)ccc1C [compound 8] |  | > 50 µM | FXIIIa inhibition at the highest concentration tested (FXIIIa [1]): did not inhibit |
| O=C(Nc1ccc2c(O)cc(S(=O)(=O)O)cc2c1)Nc1ccc2c(O)cc(S(=O)(=O)O)cc2c1 [compound 23] |  |  | FXIIIa inhibition at the highest concentration tested (FXIIIa [1]): did not inhibit |
| Cc1ccc(C(=O)Nc2ccc(CP(=O)(O)O)cc2CP(=O)(O)O)cc1NC(=O)c1cccc(NC(=O)Nc2cccc(C(=O)Nc3cc(C(=O)Nc4ccc(CP(=O)(O)O)cc4CP(=O)(O)O)ccc3C)c2)c1 [compound 6] |  | > 1000 µM |  |

Continued, in another order:

| HS (Hill slope), FXIIIa inhibition (FXIIIa [1]) | IC50 (FXIIIa [1]) | SMILES | also measured |
| --- | --- | --- | --- |
| 1.0 ± 0.1 | 23.6 ± 1.5 µM | CN(c1ccc2c(O)c(/N=N/c3ccccc3S(=O)(=O)O)c(S(=O)(=O)O)cc2c1)c1nc(Cl)nc(Nc2cccc(S(=O)(=O)O)c2)n1 [compound 12] | APTT2X (concentration required to double APTT) (normal human plasma [3]): 2067.59 ± 200 µM |
| 0.9 ± 0.2 | 286 ± 71.5 µM | O=C(Nc1cc(C(=O)Nc2ccc(S(=O)(=O)O)cc2S(=O)(=O)O)cc(C(=O)Nc2ccc(S(=O)(=O)O)cc2S(=O)(=O)O)c1)Nc1cc(C(=O)Nc2ccc(S(=O)(=O)O)cc2S(=O)(=O)O)cc(C(=O)Nc2ccc(S(=O)(=O)O)cc2S(=O)(=O)O)c1 [compound 9] |  |
|  | > 50 µM | O=C(Nc1cc(C(=O)Nc2ccc(S(=O)(=O)O)cc2)cc(C(=O)Nc2ccc(S(=O)(=O)O)cc2)c1)Nc1cc(C(=O)Nc2ccc(S(=O)(=O)O)cc2)cc(C(=O)Nc2ccc(S(=O)(=O)O)cc2)c1 [compound 10] | FXIIIa inhibition at the highest concentration tested (FXIIIa [1]): did not inhibit |
| 1.0 ± 0.3 | 16.5 ± 5.3 µM | CC(=O)Nc1ccc2cc(S(=O)(=O)O)c(/N=N/c3ccc(S(=O)(=O)CCOS(=O)(=O)O)cc3)c(O)c2c1 [compound 15] | APTT2X (concentration required to double APTT) (normal human plasma [3]): >1667 µM |
| 1.5 ± 0.3 | 15.7 ± 2.1 µM | O=S(=O)(O)c1ccc(/N=N/c2ccc(/N=N/c3c(O)c(S(=O)(=O)O)cc4cc(S(=O)(=O)O)ccc34)c(S(=O)(=O)O)c2)cc1 [compound 17] | APTT2X (concentration required to double APTT) (normal human plasma [3]): 681.54 ± 65 µM; PT2X (concentration required to double PT) (normal human plasma [4]): 868.96 ± 91 µM |
| 0.9 ± 0.2 | 14.7 ± 3 µM | Cc1[nH]n(-c2cc(Cl)c(S(=O)(=O)O)cc2Cl)c(=O)c1/N=N/c1cc(Nc2nc(Cl)nc(Nc3ccc(S(=O)(=O)O)cc3)n2)ccc1S(=O)(=O)O [compound 11] | APTT2X (concentration required to double APTT) (normal human plasma [3]): 1102.72 ± 93 ^b μM; PT2X (concentration required to double PT) (normal human plasma [4]): >1667 µM |
